Source: article PMC5584250, “Identification of deubiquitinase targets of isothiocyanates using SILAC-assisted quantitative mass spectrometry” (Oncotarget, 2017)

Experiments:
USP16 = USP16 (Homo sapiens, UniProt Q9Y5T5); experiment: SILAC-MS competitive activity profiling (biotin-Ub-PA/VME) in HeLa lysate, […] PEITC; format: cell-based
UCH37 = target: T1, UCH37 (Homo sapiens, UniProt Q9Y5K5); experiment: d5/d0-NEM differential cysteine labeling LC-MS/MS on recombinant UCH37/ADRM1; also Ub-Rho110MP hydrolysis inhibition and activity-probe competition; format: binding
T1 construct: gene UCHL5; Human UCH37 (isoform 1) with an N-terminal 6x histidine tag; with ADRM1 (RPN13)
T1 sequence (Q16186 2-407): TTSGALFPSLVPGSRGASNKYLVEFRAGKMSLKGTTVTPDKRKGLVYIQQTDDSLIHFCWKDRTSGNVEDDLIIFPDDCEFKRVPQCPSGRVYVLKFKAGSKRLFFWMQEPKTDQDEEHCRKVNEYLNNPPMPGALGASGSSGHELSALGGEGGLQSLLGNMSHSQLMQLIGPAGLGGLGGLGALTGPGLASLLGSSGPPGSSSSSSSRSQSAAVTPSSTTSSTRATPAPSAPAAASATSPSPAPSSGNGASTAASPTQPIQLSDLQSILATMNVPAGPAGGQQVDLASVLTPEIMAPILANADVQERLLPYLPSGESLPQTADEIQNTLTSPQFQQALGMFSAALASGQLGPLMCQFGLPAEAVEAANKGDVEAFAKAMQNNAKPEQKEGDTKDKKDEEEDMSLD
T1 sequence (Q9Y5K5 whole entry, canonical isoform): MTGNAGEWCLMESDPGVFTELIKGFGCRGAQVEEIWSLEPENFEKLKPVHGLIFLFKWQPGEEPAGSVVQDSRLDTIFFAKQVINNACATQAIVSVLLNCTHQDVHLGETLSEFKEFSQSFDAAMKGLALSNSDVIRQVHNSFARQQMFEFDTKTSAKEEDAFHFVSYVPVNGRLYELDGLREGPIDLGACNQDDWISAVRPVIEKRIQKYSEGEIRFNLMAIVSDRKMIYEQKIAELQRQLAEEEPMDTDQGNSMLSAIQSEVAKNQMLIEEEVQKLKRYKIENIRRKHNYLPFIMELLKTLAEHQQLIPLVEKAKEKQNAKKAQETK

USP1 = target: T2, USP1 (Homo sapiens, UniProt O94782); experiment: K63-linked di-ubiquitin gel-based hydrolysis assay with purified USP1/UAF1; also probe labeling in cells and SILAC-MS; format: biochemical
T2 construct: recombinant human His6-USP1/UAF1 complex; with UAF1
T2 sequence (O94782 whole entry): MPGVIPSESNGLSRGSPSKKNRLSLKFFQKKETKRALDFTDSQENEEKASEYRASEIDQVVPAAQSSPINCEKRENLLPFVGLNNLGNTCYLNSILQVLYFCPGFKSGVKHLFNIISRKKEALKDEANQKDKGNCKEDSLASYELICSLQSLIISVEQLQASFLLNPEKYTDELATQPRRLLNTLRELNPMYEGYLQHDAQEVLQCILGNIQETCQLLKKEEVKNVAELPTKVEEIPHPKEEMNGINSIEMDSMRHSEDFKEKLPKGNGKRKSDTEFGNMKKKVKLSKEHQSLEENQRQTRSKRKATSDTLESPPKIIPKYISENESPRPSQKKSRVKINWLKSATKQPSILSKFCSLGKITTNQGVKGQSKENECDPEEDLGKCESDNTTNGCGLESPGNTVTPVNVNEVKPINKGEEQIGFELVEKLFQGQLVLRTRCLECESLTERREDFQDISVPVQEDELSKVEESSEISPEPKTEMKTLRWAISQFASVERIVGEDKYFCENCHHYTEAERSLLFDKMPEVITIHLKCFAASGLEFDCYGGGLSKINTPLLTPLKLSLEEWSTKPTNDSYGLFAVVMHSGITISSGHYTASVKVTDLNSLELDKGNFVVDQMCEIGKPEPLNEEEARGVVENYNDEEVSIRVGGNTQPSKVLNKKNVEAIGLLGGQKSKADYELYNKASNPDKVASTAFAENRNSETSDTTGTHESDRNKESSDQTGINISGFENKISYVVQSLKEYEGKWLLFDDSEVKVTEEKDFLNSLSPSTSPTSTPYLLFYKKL
T2 sequence (Q8TAF3 whole entry partner): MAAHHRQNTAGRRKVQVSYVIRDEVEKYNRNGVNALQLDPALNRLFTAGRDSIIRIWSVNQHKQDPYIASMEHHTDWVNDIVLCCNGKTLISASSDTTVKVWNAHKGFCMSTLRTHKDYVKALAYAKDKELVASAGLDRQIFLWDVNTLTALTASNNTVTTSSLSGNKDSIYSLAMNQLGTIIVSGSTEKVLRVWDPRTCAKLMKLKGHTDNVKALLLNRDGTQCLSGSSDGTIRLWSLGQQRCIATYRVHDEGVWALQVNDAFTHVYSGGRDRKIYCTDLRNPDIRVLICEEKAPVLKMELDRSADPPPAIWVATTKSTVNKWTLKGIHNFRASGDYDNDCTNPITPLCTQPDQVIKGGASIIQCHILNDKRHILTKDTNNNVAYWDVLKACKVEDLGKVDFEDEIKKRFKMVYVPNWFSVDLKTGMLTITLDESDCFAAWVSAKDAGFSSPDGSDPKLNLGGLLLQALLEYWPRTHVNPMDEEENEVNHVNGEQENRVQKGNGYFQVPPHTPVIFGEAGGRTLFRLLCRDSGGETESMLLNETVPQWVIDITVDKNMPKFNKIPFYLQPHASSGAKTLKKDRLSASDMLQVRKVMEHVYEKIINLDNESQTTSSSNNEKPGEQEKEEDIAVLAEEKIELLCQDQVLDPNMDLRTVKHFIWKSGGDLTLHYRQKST
Description: K63-linked di-ubiquitin gel-based hydrolysis assay with purified USP1/UAF1; also probe labeling in cells and SILAC-MS on USP1 | hydrolysis of di-Ub by purified USP1 in complex with its activator UAF1 ... Dose dependent inhibition was observed

VCPIP1 = target: T3, VCPIP1 (Homo sapiens, UniProt Q96JH7); experiment: SILAC-MS competitive activity profiling (biotin-Ub-PA/VME) in HeLa lysate, […] PEITC; format: cell-based
T3 sequence (Q96JH7 1-1222): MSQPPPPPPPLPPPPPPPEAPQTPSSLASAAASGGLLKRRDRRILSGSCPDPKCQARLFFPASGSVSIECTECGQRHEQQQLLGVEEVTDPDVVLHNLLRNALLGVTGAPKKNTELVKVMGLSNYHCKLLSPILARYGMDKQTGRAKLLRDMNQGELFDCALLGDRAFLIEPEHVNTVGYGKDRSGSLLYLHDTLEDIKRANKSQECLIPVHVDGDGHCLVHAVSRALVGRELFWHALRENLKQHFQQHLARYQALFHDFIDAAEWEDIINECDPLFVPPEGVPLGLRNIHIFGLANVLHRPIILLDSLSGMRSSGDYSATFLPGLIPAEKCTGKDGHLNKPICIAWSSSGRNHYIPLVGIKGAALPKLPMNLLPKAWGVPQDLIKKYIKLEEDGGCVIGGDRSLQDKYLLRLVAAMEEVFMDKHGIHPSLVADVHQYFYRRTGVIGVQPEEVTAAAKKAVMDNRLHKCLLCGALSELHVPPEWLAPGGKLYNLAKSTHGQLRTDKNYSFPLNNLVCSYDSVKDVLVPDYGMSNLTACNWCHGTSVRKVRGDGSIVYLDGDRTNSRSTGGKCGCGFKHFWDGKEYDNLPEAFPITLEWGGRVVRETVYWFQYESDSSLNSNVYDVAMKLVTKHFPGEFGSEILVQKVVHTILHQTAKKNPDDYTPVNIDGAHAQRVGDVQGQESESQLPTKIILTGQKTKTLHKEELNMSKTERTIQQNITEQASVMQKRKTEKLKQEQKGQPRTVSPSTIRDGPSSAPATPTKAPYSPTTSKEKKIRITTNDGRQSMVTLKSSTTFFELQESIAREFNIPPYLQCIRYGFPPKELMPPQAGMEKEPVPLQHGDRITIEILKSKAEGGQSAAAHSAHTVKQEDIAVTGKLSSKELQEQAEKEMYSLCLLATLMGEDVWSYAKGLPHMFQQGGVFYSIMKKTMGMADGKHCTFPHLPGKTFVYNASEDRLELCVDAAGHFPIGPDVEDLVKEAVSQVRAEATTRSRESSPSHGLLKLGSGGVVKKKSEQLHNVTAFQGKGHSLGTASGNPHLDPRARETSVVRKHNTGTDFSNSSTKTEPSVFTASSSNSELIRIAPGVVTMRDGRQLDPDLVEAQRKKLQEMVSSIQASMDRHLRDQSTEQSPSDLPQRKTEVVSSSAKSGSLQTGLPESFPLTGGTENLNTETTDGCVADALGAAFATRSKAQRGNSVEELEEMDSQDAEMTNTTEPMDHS

USP3 = target: T4, USP3 (Homo sapiens, UniProt Q9Y6I4); experiment: Biotin-Ub-PA/VME activity-probe labeling with immunoblot after treatment of HEK293T cells; SILAC-MS in HeLa lysate; format: cell-based
T4 sequence (Q9Y6I4 1-520): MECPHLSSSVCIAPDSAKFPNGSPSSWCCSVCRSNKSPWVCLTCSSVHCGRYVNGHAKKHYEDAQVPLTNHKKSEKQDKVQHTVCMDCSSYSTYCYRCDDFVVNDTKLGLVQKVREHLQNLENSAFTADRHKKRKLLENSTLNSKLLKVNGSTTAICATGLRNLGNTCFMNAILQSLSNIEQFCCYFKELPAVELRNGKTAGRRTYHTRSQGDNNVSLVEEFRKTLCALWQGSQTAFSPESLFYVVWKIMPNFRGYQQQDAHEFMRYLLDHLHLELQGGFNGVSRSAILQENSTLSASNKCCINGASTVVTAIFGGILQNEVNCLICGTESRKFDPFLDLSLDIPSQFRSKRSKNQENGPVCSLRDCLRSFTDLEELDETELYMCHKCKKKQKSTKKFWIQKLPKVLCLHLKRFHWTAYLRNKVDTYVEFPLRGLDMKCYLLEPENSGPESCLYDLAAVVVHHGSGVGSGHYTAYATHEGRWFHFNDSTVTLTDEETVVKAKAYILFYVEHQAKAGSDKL

Sequence of USP16 (Q9Y5T5 whole entry): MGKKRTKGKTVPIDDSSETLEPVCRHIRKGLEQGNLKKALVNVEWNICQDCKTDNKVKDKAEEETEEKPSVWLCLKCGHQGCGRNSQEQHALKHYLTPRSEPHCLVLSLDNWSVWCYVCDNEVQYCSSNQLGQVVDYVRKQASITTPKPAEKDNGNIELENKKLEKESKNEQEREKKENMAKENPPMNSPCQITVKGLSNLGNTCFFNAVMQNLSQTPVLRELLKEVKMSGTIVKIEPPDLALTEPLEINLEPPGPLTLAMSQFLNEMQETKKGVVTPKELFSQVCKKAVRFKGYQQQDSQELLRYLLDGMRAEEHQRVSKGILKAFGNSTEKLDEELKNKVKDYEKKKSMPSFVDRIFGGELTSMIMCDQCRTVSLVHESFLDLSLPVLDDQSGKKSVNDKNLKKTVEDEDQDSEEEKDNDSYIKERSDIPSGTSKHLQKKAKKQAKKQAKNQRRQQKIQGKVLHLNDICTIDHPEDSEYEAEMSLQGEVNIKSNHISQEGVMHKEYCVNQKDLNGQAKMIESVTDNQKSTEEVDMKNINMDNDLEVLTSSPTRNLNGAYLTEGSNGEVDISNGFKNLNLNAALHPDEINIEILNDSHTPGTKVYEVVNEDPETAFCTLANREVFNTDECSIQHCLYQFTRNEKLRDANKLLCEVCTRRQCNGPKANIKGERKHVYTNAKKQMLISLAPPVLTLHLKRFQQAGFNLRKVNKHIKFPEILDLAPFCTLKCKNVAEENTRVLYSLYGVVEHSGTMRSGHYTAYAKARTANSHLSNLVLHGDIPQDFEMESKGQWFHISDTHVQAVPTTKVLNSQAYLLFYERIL

## S=C=NCCc1ccccc1 [PEITC]
USP16
  SILAC-MS competitive activity profiling (biotin-Ub-PA/VME) in HeLa lysate, 75 μM: USP1, USP3, USP16, USP48 and VCPIP1 were only identified in the absence of PEITC
UCH37
  d5/d0-NEM differential cysteine labeling LC-MS/MS on recombinant UCH37/ADRM1; al: increase in d0-NEM labeling at Cys88, indicating that the active-site cysteine is the site of PEITC modification
USP1
  K63-linked di-ubiquitin gel-based hydrolysis assay with purified USP1/UAF1; also: hydrolysis of di-Ub by purified USP1 in complex with its activator UAF1 ... Dose dependent inhibition was observed
VCPIP1
  SILAC-MS competitive activity profiling (biotin-Ub-PA/VME) in HeLa lysate, 75 μM: the inhibition of VCPIP1 by PEITC is the first report of inhibition of an OTU domain DUB
USP3
  Biotin-Ub-PA/VME activity-probe labeling with immunoblot after treatment of HEK2: inhibition of USP3 by PEITC in living cells was confirmed by observing the molecular shift upon probe labeling
